The text below walks through data of US20240336556A1, “R-KETAMINE SALTS AND METHODS OF USE THEREOF” (Perception Neuroscience, Inc., priority 2021, published 2024).

Series [1] is described as follows: Approximate solubility in 20% (w/w) aqueous (2-Hydroxypropyl)-Beta-cyclodextrin solution and in 20% (w/w) cyclodextrin in buffer pH 7, with pH of the solutions. The following applies: for Approximate Solubility: ambient conditions, visual estimate. How it is done: These values were determined by adding small aliquots of solvent or solvent mixture to ˜10 mg of solid and shaking/sonicating for a short period of time at ambient conditions. The solubilities were estimated by visual observations. These values are only approximations. Table 20 summarized the obtained solubility values, and the pH of the resulting solutions.

Series [2] in a line: Approximate solubility determination (small aliquots of solvent added to ~10 mg of solid, ambient conditions). It is filed as physicochemical. As to conditions: thermodynamic from solid, approximation. The protocol:
Approximate solubilities were determined for the R-ketamine free base. […] These values are only approximations.

Series [3] in a line: HPLC precise solubility determination of R-ketamine salts in water at 25° C., with pH of the saturated solution. As to conditions: for Initial pH / pH after 24 hours: saturated solution in water, pH determined at 24° C.; for solubility / solubility in water: 25° C.; for solubility: equilibrated one day, HPLC of the saturated solution, values marked * may be underestimated; for solubility in water: one day equilibration, HPLC. How it is done:
50 mg of R-ketamine saccharin salt was suspended in 0.5 mL of water, and the suspension was equilibrated (700 rpm) at 25° C. for one day. 10 to 15 mg of R-ketamine fumarate salt and R-ketamine oxalate salt were also equilibrated in 0.5 mL of water at 25° C. for one day.

Series [4] in a line: Dynamic vapor sorption (DVS) and classification of hygroscopicity. The following applies: for solid form of the sample after DVS: PXRD or FT-Raman on solid recovered after the DVS test; for reversibility of water sorption: under the test conditions. The format is physicochemical. How it is done:
DVS measurements were performed with an SPS11-100n “Sorptions Prüfsystem” from ProUmid (formerly “Projekt Messtechnik”), August-Nagel-Str. 23, 89079 Ulm (Germany). About 5-20 mg of sample were put into an aluminum sample pan. Humidity change rates of […] were used. The applied measurement program is described as follows:
The sample was placed on an aluminum or platinum holder on top of a microbalance and allowed to equilibrate at 50% RH before starting the pre-defined humidity programs: • (1) 2 h at 50% RH • (2) 50→0% RH (5%/h); 5 h at 0% RH • (3) 0→95% RH (5%/h); 5 h at 95% RH • (4) 95→0% RH (5%/h); 5 h at 0% RH • (5) 0→95% RH (5%/h); 5 h at 95% RH • (6) 95→50% RH (5%/h); 2 h at 50% RH
The hygroscopicity was classified based on the mass gain at 85% RH relative to the initial mass as follows: deliquescent (sufficient water adsorbed to form a liquid), very hygroscopic (mass increase of ≥15%), hygroscopic (mass increase <15% but ≥2%), slightly hygroscopic (mass increase <2% but ≥0.2%), or non-hygroscopic (mass increase <0.2%).

The nature of series [5]: Storage in a closed vial at ambient conditions, reanalysis by PXRD. It is filed as physicochemical. The protocol: Stoe Stadi P equipped with a Mythen1K Detector; Cu-Kα1 radiation; standard measurement conditions: transmission; 40 kV and 40 mA tube power; curved Ge monochromator; 0.02°2θ step size, 48 s step time, 1.5-50.5°2θ scanning range; detector mode: step scan; 1 °2θ detector step; standard sample preparation: 10 to 20 mg sample was placed between two acetate foils; sample holder: Stoe transmission sample holder; the sample was rotated during the measurement. All sample preparation and measurement was done in an ambient air atmosphere.

For series [6] the following is noted: water, at 23° C.
Series [7] in a line: Precise solubility tests of R-ketamine fumarate salt Form A in aqueous media at adjusted pH (HPLC). As to conditions: for solubility: aqueous, equilibrated one day, HPLC.
Where [8] appears, read: obtained solution in 20% (w/w) aqueous cyclodextrin, measured at 24° C.
The mark [9] stands for this setting: obtained solution in 20% (w/w) cyclodextrin in buffer pH 7, measured at 24° C.
The mark [10] stands for this setting: DVS, above 70% relative humidity.

The structures appear in SMILES notation. Values after ≈ are worked out from the molar mass of the structure shown. Like-named read-outs stand apart in the source and are kept apart here. Some results are limits rather than exact numbers.

With `CNC1(c2ccccc2Cl)CCCCC1=O.Cl` (centres unmarked) [R-ketamine hydrochloride salt, reference compound], the solubility result in series [1] (aqueous 20% (2-hydroxypropyl)-beta-cyclodextrin solution) was “*The solubility of the HCl R-ketamine salt was over 100 mg/mL in aqueous 20% (2-hydroxypropyl)-beta-cyclodextrin solution”.

`CN[C@@]1(c2ccccc2Cl)CCCCC1=O` [R-ketamine free base, (2R)-2-(2-chlorophenyl)-2-(methylamino)cyclohexan-1-one]: the solubility in series [2] (aqueous with cosolvent or surfactant or cyclodextrin, 20% (2-hydroxypropyl)-beta-cyclodextrin in water) is 1.4 to 1.7 mg/mL (≈ 5.89 to 7.15 mM); in series [2] (organic solvent or mixture, 1-propanol), 60 to 79 mg/mL (≈ 252 to 332 mM); in series [2] (organic solvent or mixture, 2-propanol), 37 to 44 mg/mL (≈ 156 to 185 mM); in series [2] (organic solvent or mixture, Acetone), 111 to 222 mg/mL (≈ 467 to 934 mM); in series [2] (organic solvent or mixture, Acetonitrile), 89 to 133 mg/mL (≈ 374 to 559 mM); in series [2] (organic solvent or mixture, Ethanol), 62 to 83 mg/mL (≈ 261 to 349 mM). The solubility in series [2] (organic solvent or mixture, Ethyl acetate) was 115 to 230 mg/mL (≈ 484 to 967 mM); in series [2] (organic solvent or mixture, Heptane) it was 5 to 9 mg/mL (≈ 21 to 37.9 mM); in series [2] (organic solvent or mixture, Methanol), 120 to 240 mg/mL (≈ 505 to 1010 mM); in series [2] (organic solvent or mixture, THF), over 288 mg/mL; in series [2] (Water), under 1 mg/mL; in series [1] (20% (w/w) (2-hydroxypropyl)-beta-cyclodextrin in buffer pH 7, pH 7, aqueous with cosolvent or surfactant or cyclodextrin, thermodynamic from solid), 2 to 2.5 mg/mL (≈ 8.41 to 10.5 mM). For the same compound, in series [1] (aqueous with cosolvent or surfactant or cyclodextrin, thermodynamic from solid), the solubility is 1.5 to 1.7 mg/mL (≈ 6.31 to 7.15 mM). Moreover, the figures for the pH in series [1] (setting [8]) and in series [1] (setting [9]) were 8.5 and 7.1, respectively.

`CN[C@@]1(c2ccccc2Cl)CCCCC1=O.O=C1NS(=O)(=O)c2ccccc21` [R-ketamine saccharin salt]: the “Approximate Solubility” value in series [1] (20% (w/w) aqueous cyclodextrin) was 28~37 mg/mL; in series [1] (20% (w/w) cyclodextrin in buffer pH 7 solution), 26~35 mg/mL. The results for the pH in series [1] (setting [8]) and in series [1] (setting [9]) were 5 and 6.3, respectively. Further, in series [3] (after 1 h), the “Initial pH” value is on record as 4.2 (after 1 h). The “pH after 24 hours” value in series [3] is given as 4.0. Moreover, in series [3] (water), the solubility is given as 6.64 mg/mL. For the same compound, the solubility in water in series [3] (water) was 6.6 mg/mL. Also, the hygroscopicity class result in series [4] (DVS) is listed as “non-hygroscopic (non-hygroscopic (mass increase <0.2%))”. For the same compound, the “solid form of the sample after DVS” value in series [4] is “no change in the solid form was observed”.

With `CN[C@@]1(c2ccccc2Cl)CCCCC1=O.O=C(O)C(O)C(O)C(=O)O` [R-ketamine D-tartrate salt Form B], in series [5] (12 months, ambient conditions), the “solid form after storage (PXRD)” value is “corresponding to R-ketamine D-tartrate salt Form B”. Also, the water content reached result in series [4] (setting [10]) is “about 8.5%”. Further, the “reversibility of water sorption” value in series [4] (DVS) was “irreversible”.

For the compound `CN[C@@]1(c2ccccc2Cl)CCCCC1=O.O=C(O)/C=C/C(=O)O` [R-ketamine fumarate salt Form B], in series [5] (11 months, ambient condition), the “solid form after storage (PXRD)” value is “a mixture of the R-ketamine fumarate salt Form A and B (about 1:1)”.

Take `CN[C@@]1(c2ccccc2Cl)CCCCC1=O.O=C(O)C(=O)O` [R-ketamine oxalate salt]: the “Initial pH” value in series [3] (after 3 h) was 5.6 (after 3 h). Further, the “pH after 24 hours” value in series [3] was 5.7. For the same compound, in series [3] (water), the solubility is 19.2* mg/mL and the solubility in water entry is given as “higher than the solubility of the R-ketamine saccharin salt”. In addition, the “pH of the saturated solution” value in series [3] (water, after one day stirring, pH measured at 24° C.) was found to be 5.7. In addition, the hygroscopicity class result in series [4] (DVS) is reported as “very hygroscopic (very hygroscopic (mass increase of ≥15%))”. The “solid form of the sample after DVS” value in series [4] is listed as “dramatically loss of crystallinity was observed”.

Take `CN[C@@]1(c2ccccc2Cl)CCCCC1=O.O=C(O)C(O)C(O)C(=O)O` [R-ketamine D-tartrate salt Form D]: in series [4] (DVS, at high relative humidity), the additional water absorbed entry is “About 0.4%”.

Turning to `CN[C@@]1(c2ccccc2Cl)CCCCC1=O.O=C(O)C(O)C(O)C(=O)O` [R-ketamine D-tartrate salt Form C], the “pH of the suspension” value in series [6] (after 24 hours of stirring) was 3.42; in series [6] (after one hour), 3.48. Also, the water content reached result in series [4] (setting [10]) is recorded as “about 8.3%”. The “reversibility of water sorption” value in series [4] (DVS) is “irreversible”.

In the case of `CN[C@@]1(c2ccccc2Cl)CCCCC1=O.O=C(O)C(O)C(O)C(=O)O` [R-ketamine D-tartrate salt Form A], in series [5] (13 months, ambient conditions), the “solid form after storage (PXRD)” value is “corresponding to R-ketamine D-tartrate salt Form A”. In series [4] (setting [10]), the additional water uptake result is given as “about 3%”. Further, the “reversibility of water sorption” value in series [4] (DVS) is “irreversible”.

Take `CN[C@@]1(c2ccccc2Cl)CCCCC1=O.CN[C@@]1(c2ccccc2Cl)CCCCC1=O.O=C(O)/C=C/C(=O)O` [R-ketamine fumarate salt Form A]: the solubility in series [7] (pH 5.23, r.t.) is recorded as 304 mg/mL; in series [7] (pH 6.14, r.t.) it was 15.1 mg/mL; in series [7] (pH 7.21, r.t.) it was 1.76 mg/mL; in series [3] (water), 17.7* mg/mL. For the same compound, the “pH on dissolution in pure water” value in series [7] (pure water, from approximate solubility tests) is “about 5.7”. Besides, in series [7] (water adjusted to pH 5, 6, 7, one day at 25° C.), the “dependence of aqueous solubility on pH” value is given as “solubility rapidly deceases by increasing pH”. Besides, the “Initial pH” value in series [3] (after 3 h) is 4.1 (after 3 h). The “pH after 24 hours” value in series [3] came to 4.1. The solubility in water result in series [3] (water) is given as “higher than the solubility of the R-ketamine saccharin salt”. In series [4] (DVS), the “reversibility of water sorption” value is recorded as “lost all its water when the humidity is scanned back to 0% r.h”. For the same compound, the “solid form of the sample after DVS” value in series [4] is reported as “no change in the crystalline form was observed”.

Usually solubility stands for how much of the substance goes into solution per volume.
